Source: patent US11656384B2, “Composition, film, lens, solid state imaging element, and compounds” (FUJIFILM Corporation, priority 2017, dated 2023)
Values belong to the compound of their own block, whether it stands above or below them.

Assay: Dissolution test: solubility of the compound in a solvent at 25° C.
[1] = solvent PGMEA/PGME (90% by mass/10% by mass)
[2] = solvent Diethylene glycol monobutyl ether acetate

Protocol: By the following method, the solubility of the compound represented by General Formula (I) in a solvent was investigated.
Then, solids were removed using a 0.5 μm TEFLON (registered trademark) filter. Thereafter, the obtained filtrate was caused to volatilize for 3 hours at 150° C. in a vacuum, and the content of residues was measured, thereby quantifying the content of solids dissolved in the solvent.

Compound: N#Cc1ccc(Nc2nc(Nc3ccc(C#N)cc3)nc(Nc3ccc(C#N)cc3)n2)cc1 [Compound A-2]
Solubility (solvent Cyclohexyl methyl ether): < 0.5% by mass
Solubility (solvent PGMEA): Less than 0.5% by % by mass

Compound: CC(=O)Nc1ccc(Nc2nc(Nc3ccc(NC(C)=O)cc3)nc(Nc3ccc(NC(C)=O)cc3)n2)cc1 [Compound A-3]
Solubility (solvent Cyclohexanone): < 0.5% by mass
Solubility (solvent PGME): < 0.5% by mass
Solubility (solvent PGMEA): Less than 0.5% by % by mass

Compound: Brc1ccc(Nc2nc(Nc3ccc(Br)cc3)nc(Nc3ccc(Br)cc3)n2)cc1 [Compound A-5]
Solubility (solvent 3-methoxybutyl acetate): < 0.5% by mass
Solubility (solvent PGMEA): Less than 0.5% by % by mass

Compound: O=[N+]([O-])c1ccc(Nc2nc(Nc3ccc([N+](=O)[O-])cc3)nc(Nc3ccc([N+](=O)[O-])cc3)n2)cc1 [Compound A-6]
Solubility (solvent Cyclohexyl acetate): < 0.5% by mass
Solubility (solvent PGMEA): Less than 0.5% by % by mass

Compound: CSc1ccc(Nc2nc(Nc3ccc(SC)cc3)nc(Nc3ccc(SC)cc3)n2)cc1 [Compound A-9]
Solubility (solvent Cyclobutyl ether): < 0.5% by mass
Solubility [2]: < 0.5% by mass
Solubility (solvent PGMEA): Less than 0.5% by % by mass

Compound: O=C(Nc1ccccc1)c1cc(C(=O)Nc2ccccc2)cc(C(=O)Nc2ccccc2)c1 [Compound A-14]
Solubility (solvent Ethyl lactate): < 0.5% by mass
Solubility (solvent PGMEA): Less than 0.5% by % by mass

Compound: O=S(=O)(Nc1ccccc1)c1cccc2c(S(=O)(=O)Nc3ccccc3)cccc12 [Compound A-15]
Solubility (solvent Cyclohexyl acetate): < 0.5% by mass
Solubility (solvent PGMEA): Less than 0.5% by % by mass
Solubility [1]: < 0.5% by mass

Compound: O=S(=O)(Nc1ccccc1)c1cccc2c(S(=O)(=O)Nc3ccccc3)cccc12 [Compound A-16]
Solubility (solvent 3-methoxybutyl acetate): < 0.5% by mass
Solubility (solvent PGMEA/PGME (80% by mass/20% by mass)): < 0.5% by mass

Compound: O=S(=O)(Nc1ccccc1)c1cccc2c(S(=O)(=O)Nc3ccccc3)cccc12 [Compound A-17]
Solubility (solvent Cyclopentanone/PGME (90% by mass/10% by mass)): < 0.5% by mass

More lines, now with the values ahead:

Solubility (solvent Toluene): < 0.5% by mass
Compound: c1ccc(Nc2nc(Nc3ccccc3)nc(Nc3ccccc3)n2)cc1 [Compound A-1]

Solubility (solvent Butyl acetate): < 0.5% by mass
Solubility (solvent PGME): < 0.5% by mass
Solubility (solvent PGMEA): Less than 0.5% by % by mass
Compound: c1ccc2cc(Nc3nc(Nc4ccc5ccccc5c4)nc(Nc4ccc5ccccc5c4)n3)ccc2c1 [Compound A-4]

Solubility (solvent PGMEA): Less than 0.5% by % by mass
Solubility (solvent PGMEA/PGME (70% by mass/30% by mass)): < 0.5% by mass
Solubility [1]: < 0.5% by mass
Compound: c1ccc(-c2ccc(-c3ccc(Nc4nc(Nc5ccc(-c6ccc(-c7ccccc7)cc6)cc5)nc(Nc5ccc(-c6ccc(-c7ccccc7)cc6)cc5)n4)cc3)cc2)cc1 [Compound A-7]

Solubility (solvent Cyclopentanone): < 0.5% by mass
Solubility (solvent PGMEA): Less than 0.5% by % by mass
Compound: N#Cc1ccc(-c2ccc(Nc3nc(Nc4ccc(-c5ccc(C#N)cc5)cc4)nc(Nc4ccc(-c5ccc(C#N)cc5)cc4)n3)cc2)cc1 [Compound A-8]

Solubility (solvent Anisole): < 0.5% by mass
Solubility (solvent PGMEA): Less than 0.5% by % by mass
Solubility (solvent Propylene glycol diacetate): < 0.5% by mass
Compound: CN(c1ccccc1)c1nc(Nc2ccccc2)nc(Nc2ccccc2)n1 [Compound A-10]

Solubility (solvent Dipropylene glycol dimethyl ether): < 0.5% by mass
Solubility (solvent PGMEA): Less than 0.5% by % by mass
Compound: c1ccc(Nc2nc(Nc3ccccc3)nc(Oc3ccccc3)n2)cc1 [Compound A-11]

Solubility (solvent 3-methoxybutyl acetate): < 0.5% by mass
Solubility [2]: < 0.5% by mass
Solubility (solvent PGMEA): Less than 0.5% by % by mass
Compound: c1ccc(Nc2nc(Nc3ccccc3)nc(Sc3ccccc3)n2)cc1 [Compound A-12]

Solubility (solvent PGMEA): Less than 0.5% by % by mass
Compound: c1ccc(Nc2nc(Nc3ccccc3)nc(Nc3ccc(-c4ccc(-c5ccccc5)cc4)cc3)n2)cc1 [Compound A-19]

Solubility (solvent PGMEA): Less than 0.5% by % by mass
Compound: c1ccc(-c2ccc(-c3ccc(Nc4nc(Nc5ccc(-c6ccc(-c7ccccc7)cc6)cc5)nc(Nc5nc6ccccc6s5)n4)cc3)cc2)cc1 [Compound A-20]

Solubility (solvent PGMEA): Less than 0.5% by % by mass
Compound: c1ccc(-c2ccc(-c3ccc(-c4ccc(Nc5nc(Nc6ccc(-c7ccc(-c8ccc(-c9ccccc9)cc8)cc7)cc6)nc(Nc6ccc(-c7ccc(-c8ccc(-c9ccccc9)cc8)cc7)cc6)n5)cc4)cc3)cc2)cc1 [Compound A-21]

Solubility (solvent PGMEA): Less than 0.5% by % by mass
Compound: Clc1ccc(-c2ccc(Nc3nc(Nc4ccc(-c5ccc(Cl)cc5)cc4)nc(Nc4ccc(-c5ccc(Cl)cc5)cc4)n3)cc2)cc1 [Compound A-22]

Solubility (solvent PGMEA): Less than 0.5% by % by mass
Compound: CN(c1ccccc1)c1nc(Nc2ccc(-c3ccc(-c4ccccc4)cc3)cc2)nc(Nc2ccc(-c3ccc(-c4ccccc4)cc3)cc2)n1 [Compound A-23]

Solubility (solvent PGMEA): Less than 0.5% by % by mass
Compound: N#Cc1ccc(-c2ccc(Nc3nc(Nc4ccc(-c5ccc(C#N)cc5)cc4)nc(Oc4ccccc4)n3)cc2)cc1 [Compound A-24]
